From ChEMBL document CHEMBL3259619, “Antibacterial activity of a series of N2,N4-disubstituted quinazoline-2,4-diamines” (J Med Chem, 2014)
≈ marks a conversion by molar mass, not a printed value. Calls of active or inactive are those of the source.

Key:
Trichoderma viride = test: Antimicrobial activity against Trichoderma viride; format: functional
Salmonella typhimurium = test: Antimicrobial activity against Salmonella typhimurium; format: functional, Salmonella enterica subsp. enterica serovar Typhimurium; conditions: Salmonella enterica
Klebsiella pneumoniae [1] = test: Antimicrobial activity against Klebsiella pneumoniae; format: functional
Aspergillus niger = test: Antimicrobial activity against Aspergillus niger; format: functional
Staphylococcus aureus [2] = test: Antimicrobial activity against Staphylococcus aureus; format: functional, organism-based
Bacillus subtilis = test: Antimicrobial activity against Bacillus subtilis; format: functional, organism-based
Streptococcus pyogenes = test: Antimicrobial activity against Streptococcus pyogenes; format: functional
Escherichia coli = test: Antimicrobial activity against Escherichia coli; format: functional
Candida albicans = test: Antimicrobial activity against Candida albicans; format: functional
physchem [3] = conditions: pampa, pH 4
physchem [4] = conditions: pampa, pH 7.4
[5] = Cytotoxicity against human A549 cells assessed as cell viability recovery up to 407 uM by MTT assay relative to untreated control; format: cell-based; conditions: read-out: Activity
[6] = Aqueous solubility of the compound at pH 2 after 18 hrs incubation by HPLC; format: physicochemical
[7] = Aqueous solubility of the compound at pH 7.4 after 18 hrs incubation by HPLC; format: physicochemical
Staphylococcus aureus [8] = test: Antimicrobial activity against wild type Staphylococcus aureus in presence of sulfamethoxazole; format: functional
Staphylococcus aureus [9] = test: Antimicrobial activity against methicillin-resistant Staphylococcus aureus CBD-635 assessed as complete inhibition of bacterial growth at 5 times MIC after overnight incubation in presence of tetrahydrofolic acid; format: functional, organism-based
[10] = Cytotoxicity against human A549 cells assessed as cell viability recovery at 1.6 to 16 uM by MTT assay relative to untreated control; format: cell-based; conditions: read-out: Activity
[11] = Lipophilicity, log D of the compound at pH 3; format: physicochemical; conditions: buffer
Staphylococcus aureus [12] = test: Antimicrobial activity against methicillin-resistant Staphylococcus aureus CBD-635 assessed as complete inhibition of bacterial growth after overnight incubation; format: functional
Staphylococcus aureus [13] = test: Antimicrobial activity against Staphylococcus aureus infected Galleria mellonella assessed as increase in larvae survival at 10 times MIC; format: functional
Staphylococcus aureus [14] = test: Antimicrobial activity against trimethoprim-resistant Staphylococcus aureus assessed as complete inhibition of bacterial growth after 24 hrs; format: functional, organism-based
[15] = pampa, pH 4
Staphylococcus aureus [16] = test: Bactericidal activity against methicillin-resistant Staphylococcus aureus CBD-635 assessed as bacterial killing; format: functional
[17] = pampa, pH 7.4
[18] = Cytotoxicity against human A549 cells assessed as cell viability recovery at 41 to 410 uM by MTT assay relative to untreated control; format: cell-based; conditions: read-out: Activity
Staphylococcus aureus [19] = test: Antimicrobial activity against Staphylococcus aureus infected Galleria mellonella assessed as increase in larvae survival at 5 times MIC; format: functional
Staphylococcus aureus [20] = test: Antimicrobial activity against Staphylococcus aureus infected in mouse assessed as increase in mouse survival at 5 times MIC via tail vein relative to untreated control; format: functional
Staphylococcus aureus [21] = test: Antimicrobial activity against methicillin-resistant Staphylococcus aureus CBD-635 assessed as zone of inhibition at 5 mg/ml after 24 hrs by disk diffusion assay; format: functional; conditions: CBD-635, 24 h, read-out: IZ
[22] = Lipophilicity, log D of the compound at pH 7.4; format: physicochemical; conditions: buffer
Staphylococcus aureus [23] = test: Antimicrobial activity against quinazoline-resistant Staphylococcus aureus assessed as complete inhibition of bacterial growth after 24 hrs; format: functional, organism-based
Staphylococcus aureus [24] = test: Antimicrobial activity against N2,N4-dibenzylquinazoline-2,4-diamine-induced methicillin-resistant Staphylococcus aureus CBD-635 mutant M3 assessed as complete inhibition of bacterial growth after overnight incubation; format: functional
Staphylococcus aureus [25] = test: Antimicrobial activity against N2,N4-dibenzylquinazoline-2,4-diamine-induced methicillin-resistant Staphylococcus aureus CBD-635 mutant M2 assessed as complete inhibition of bacterial growth after overnight incubation; format: functional
Staphylococcus aureus [26] = test: Antimicrobial activity against N2,N4-dibenzylquinazoline-2,4-diamine-induced methicillin-resistant Staphylococcus aureus CBD-635 mutant M4 assessed as complete inhibition of bacterial growth after overnight incubation; format: functional
Staphylococcus aureus [27] = test: Antimicrobial activity against N2,N4-dibenzylquinazoline-2,4-diamine-induced methicillin-resistant Staphylococcus aureus CBD-635 mutant M5 assessed as complete inhibition of bacterial growth after overnight incubation; format: functional
Staphylococcus aureus [28] = test: Antimicrobial activity against N2,N4-dibenzylquinazoline-2,4-diamine-induced methicillin-resistant Staphylococcus aureus CBD-635 mutant M7 assessed as complete inhibition of bacterial growth after overnight incubation; format: functional
Staphylococcus aureus [29] = test: Antimicrobial activity against N2,N4-dibenzylquinazoline-2,4-diamine-induced methicillin-resistant Staphylococcus aureus CBD-635 mutant M1 assessed as complete inhibition of bacterial growth after overnight incubation; format: functional
Staphylococcus aureus [30] = test: Antimicrobial activity against N2,N4-dibenzylquinazoline-2,4-diamine-induced methicillin-resistant Staphylococcus aureus CBD-635 mutant M6 assessed as complete inhibition of bacterial growth after overnight incubation; format: functional
Staphylococcus aureus [31] = test: Antibacterial activity against Staphylococcus aureus infected in mouse assessed as protection of mouse; format: functional
Staphylococcus aureus [32] = test: Antibacterial activity against trimethoprim-resistant Staphylococcus aureus; format: functional
[33] = Cytotoxicity against human A549 cells assessed as cell viability recovery at 1.8 to 8.8 uM by MTT assay relative to untreated control; format: cell-based; conditions: read-out: Activity
[34] = Cytotoxicity against human A549 cells assessed as cell viability recovery at 18 uM by MTT assay relative to untreated control; format: cell-based; conditions: read-out: Activity
[35] = Cytotoxicity against human A549 cells assessed as cell viability recovery at 440 uM by MTT assay relative to untreated control; format: cell-based; conditions: read-out: Activity
[36] = Cytotoxicity against human A549 cells assessed as cell viability recovery up to 440 uM by MTT assay relative to untreated control; format: cell-based; conditions: read-out: Activity
Klebsiella pneumoniae [37] = test: Antimicrobial activity against Klebsiella pneumoniae infected in mouse assessed as survival rate at 100 mg/kg; format: functional

c1ccc2c(c1)cc1c3ccccc3nc(-c3csc4ccccc34)n21
MIC (Trichoderma viride): 2 µg/mL (≈ 5.71 µM) | MIC (Salmonella typhimurium): 2 µg/mL (≈ 5.71 µM) | MIC (Klebsiella pneumoniae [1]): 2 µg/mL | MIC (Aspergillus niger): 2 µg/mL (≈ 5.71 µM) | MIC (Staphylococcus aureus [2]): 2 µg/mL | MIC (Bacillus subtilis): 2 µg/mL (≈ 5.71 µM) | MIC (Streptococcus pyogenes): 2 µg/mL (≈ 5.71 µM) | MIC (Escherichia coli): 2 µg/mL | MIC (Candida albicans): 2 µg/mL (≈ 5.71 µM)

CNC(=C[N+](=O)[O-])NCCSCc1ccc(CN(C)C)o1.Cl [RANITIDINE HYDROCHLORIDE]
Papp (physchem [3]): 5.2 ×10⁻⁶ cm/s | Papp (physchem [4]): 2.2 ×10⁻⁶ cm/s

CCCCNc1nc(NCc2ccccc2)c2ccccc2n1
viability [5]: > 60% | solubility at 18 h [6]: ≥ 30 µM | solubility at 18 h [7]: ≤ 20 µM | fractional inhibitory concentration index (FICI) (Staphylococcus aureus [8]): 0.11 | inhibition (Staphylococcus aureus [9]): inactive | viability at up to 16 µM [10]: > 100% | logD [11]: 2.84 | MIC (Staphylococcus aureus [12]): 3.3 µM (≈ 1.01 µg/mL) | Survival (Staphylococcus aureus [13]): 70% | inhibition (Staphylococcus aureus [14]): Active | permeability [15]: 161 ×10⁻⁶ cm/s | MBC50 (Staphylococcus aureus [16]): 0.98 µM (≈ 0.3 µg/mL) | permeability [17]: 1250 ×10⁻⁶ cm/s | viability at up to 410 µM [18]: > 95% | Survival (Staphylococcus aureus [19]): 40% | Survival (Staphylococcus aureus [20]): 69% | zone of inhibition at 5000 µg/mL (Staphylococcus aureus [21]): 12 mm | logD [22]: 3.8 | inhibition (Staphylococcus aureus [23]): Active

Clc1ccc2c(NCc3ccccc3)nc(NCc3ccccc3)nc2c1
MIC (Staphylococcus aureus [24]): 2.7 µM (≈ 1.01 µg/mL) | MIC (Staphylococcus aureus [25]): 27 µM (≈ 10.1 µg/mL) | inhibition (Staphylococcus aureus [9]): inactive | MIC (Staphylococcus aureus [26]): 2.7 µM (≈ 1.01 µg/mL) | MIC (Staphylococcus aureus [12]): 27 µM (≈ 10.1 µg/mL) | MIC (Staphylococcus aureus [27]): 2.7 µM (≈ 1.01 µg/mL) | MIC (Staphylococcus aureus [28]): 2.7 µM (≈ 1.01 µg/mL) | MIC (Staphylococcus aureus [29]): 27 µM (≈ 10.1 µg/mL) | MIC (Staphylococcus aureus [30]): 2.7 µM (≈ 1.01 µg/mL)

Clc1ccc(CNc2nc(NCc3ccccc3)nc3ccccc23)cc1
MIC (Staphylococcus aureus [24]): 2.7 µM (≈ 1.01 µg/mL) | MIC (Staphylococcus aureus [25]): 2.7 µM (≈ 1.01 µg/mL) | inhibition (Staphylococcus aureus [9]): inactive | MIC (Staphylococcus aureus [26]): 2.7 µM (≈ 1.01 µg/mL) | MIC (Staphylococcus aureus [12]): 67 µM (≈ 25.1 µg/mL) | MIC (Staphylococcus aureus [27]): 2.7 µM (≈ 1.01 µg/mL) | MIC (Staphylococcus aureus [28]): 2.7 µM (≈ 1.01 µg/mL) | MIC (Staphylococcus aureus [29]): 2.7 µM (≈ 1.01 µg/mL) | MIC (Staphylococcus aureus [30]): 2.7 µM (≈ 1.01 µg/mL)

Clc1ccc(CNc2nc(NCc3ccc(Cl)cc3)c3ccccc3n2)cc1
MIC (Staphylococcus aureus [25]): 2.4 µM (≈ 0.982 µg/mL) | fractional inhibitory concentration index (FICI) (Staphylococcus aureus [8]): 0.12 | inhibition (Staphylococcus aureus [9]): inactive | MIC (Staphylococcus aureus [12]): 2.4 µM (≈ 0.982 µg/mL) | Survival (Staphylococcus aureus [13]): 60% | inhibition (Staphylococcus aureus [14]): Active | MBC50 (Staphylococcus aureus [16]): 7.2 µM (≈ 2.95 µg/mL) | Survival (Staphylococcus aureus [19]): 50% | MIC (Staphylococcus aureus [29]): 2.4 µM (≈ 0.982 µg/mL) | inhibition (Staphylococcus aureus [23]): Active

Cc1cc2nc(-c3nccs3)n(-c3ccc4c(N)nc(N)nc4c3)c2cc1C
PD50 (Staphylococcus aureus [31]): 2 mg/kg | MIC (Staphylococcus aureus [32]): 0.25 µg/mL (≈ 0.645 µM)

Cc1ccc(CNc2nc(NCc3ccccc3)c3ccccc3n2)cc1
MIC (Staphylococcus aureus [24]): 2.8 µM (≈ 0.992 µg/mL) | MIC (Staphylococcus aureus [25]): 2.8 µM (≈ 0.992 µg/mL) | inhibition (Staphylococcus aureus [9]): inactive | MIC (Staphylococcus aureus [26]): 2.8 µM (≈ 0.992 µg/mL) | MIC (Staphylococcus aureus [12]): 28 µM (≈ 9.92 µg/mL) | MIC (Staphylococcus aureus [27]): 2.8 µM (≈ 0.992 µg/mL) | MIC (Staphylococcus aureus [28]): 2.8 µM (≈ 0.992 µg/mL) | MIC (Staphylococcus aureus [29]): 28 µM (≈ 9.92 µg/mL) | MIC (Staphylococcus aureus [30]): 2.8 µM (≈ 0.992 µg/mL)

CC(C)Nc1nc(NC2CCCCC2)c2ccccc2n1
solubility at 18 h [6]: ≥ 30 µM | solubility at 18 h [7]: ≤ 30 µM | fractional inhibitory concentration index (FICI) (Staphylococcus aureus [8]): 0.1 | inhibition (Staphylococcus aureus [9]): inactive | logD [11]: 3.56 | MIC (Staphylococcus aureus [12]): 3.5 µM (≈ 0.995 µg/mL) | Survival (Staphylococcus aureus [13]): 70% | viability at up to 8.8 µM [33]: > 100% | inhibition (Staphylococcus aureus [14]): Active | permeability [15]: 112 ×10⁻⁶ cm/s | MBC50 (Staphylococcus aureus [16]): 8.8 µM (≈ 2.5 µg/mL) | permeability [17]: 783 ×10⁻⁶ cm/s | viability at 18 µM [34]: 98.6% | Survival (Staphylococcus aureus [19]): 40% | viability at 440 µM [35]: 70.3% | zone of inhibition at 5000 µg/mL (Staphylococcus aureus [21]): 13 mm | logD [22]: 4.69 | viability [36]: > 60% | inhibition (Staphylococcus aureus [23]): Active

Cc1ccc(Nc2nc(-c3ccccc3)nc3ccccc23)cc1
EC50 (Staphylococcus aureus [2]): 0.8 µg/mL (≈ 2.57 µM) | MIC (Staphylococcus aureus [2]): 10 µg/mL | EC50 (Bacillus subtilis): 0.7 µg/mL (≈ 2.25 µM) | MIC (Bacillus subtilis): 1 µg/mL (≈ 3.21 µM)

Cc1ccc(CNc2nc(NCc3ccccc3)nc3ccccc23)cc1
MIC (Staphylococcus aureus [24]): 28 µM (≈ 9.92 µg/mL) | MIC (Staphylococcus aureus [25]): 2.8 µM (≈ 0.992 µg/mL) | inhibition (Staphylococcus aureus [9]): inactive | MIC (Staphylococcus aureus [26]): 28 µM (≈ 9.92 µg/mL) | MIC (Staphylococcus aureus [12]): 71 µM (≈ 25.2 µg/mL) | MIC (Staphylococcus aureus [27]): 28 µM (≈ 9.92 µg/mL) | MIC (Staphylococcus aureus [28]): 28 µM (≈ 9.92 µg/mL) | MIC (Staphylococcus aureus [29]): 2.8 µM (≈ 0.992 µg/mL) | MIC (Staphylococcus aureus [30]): 28 µM (≈ 9.92 µg/mL)

COc1cc2nc(N3CCC(Nc4ccc(C(=O)O)cc4)CC3)nc(N)c2cc1OC
MIC (Klebsiella pneumoniae [1]): 12 µM | MIC (Staphylococcus aureus [2]): 12 µM | survival at 100 mg/kg (Klebsiella pneumoniae [37]): 40% | MIC (Escherichia coli): 2 µM
